Laboratory results published in ChEMBL document CHEMBL3045218, “Synthesis and Fungicidal Activities of Some 1-Aryloxyaceto-3-(5-aryl-1, 3, 4-oxadiazol-2-yl) thioureas and Corresponding Oxadiazolo [3, 2-a]-s-triazines” (1990).

Legend:
Format in all cases: functional
[1] = system: Aspergillus niger; test: Antifungal activity against Aspergillus niger assessed as fungus colony inhibition at 1000 ppm measured after 96 hr by agar dilution method
[2] = system: Aspergillus niger; test: Antifungal activity against Aspergillus niger assessed as fungus colony inhibition at 10 ppm measured after 96 hr by agar dilution method
[3] = system: Bipolaris oryzae; test: Antifungal activity against Bipolaris oryzae assessed as fungus colony inhibition at 10 ppm measured after 96 hr by agar dilution method
[4] = system: Bipolaris oryzae; test: Antifungal activity against Bipolaris oryzae assessed as fungus colony inhibition at 100 ppm measured after 96 hr by agar dilution method
[5] = system: Aspergillus niger; test: Antifungal activity against Aspergillus niger assessed as fungus colony inhibition at 100 ppm measured after 96 hr by agar dilution method
[6] = system: Bipolaris oryzae; test: Antifungal activity against Bipolaris oryzae assessed as fungus colony inhibition at 1000 ppm measured after 96 hr by agar dilution method

SMILES	inhibition at 1000 ppm [1]	inhibition at 10 ppm [2]	inhibition at 10 ppm [3]	inhibition at 100 ppm [4]	inhibition at 100 ppm [5]	inhibition at 1000 ppm [6]
COc1ccc(-c2nn3c(COc4cc(C)ccc4C(C)C)nc(=S)nc3o2)cc1	82.5%	52.6%	52.3%	64.8%	66.4%	80.2%
Cc1ccc(C(C)C)c(OCc2nc(=S)nc3oc(-c4ccccc4)nn23)c1	78.6%	48.2%	48.6%	60.4%	62.1%	74.8%
COc1ccc(-c2nn3c(COc4ccc([N+](=O)[O-])cc4)nc(=S)nc3o2)cc1	75.8%	41.5%	48.5%	60.5%	58.5%	77.9%
O=[N+]([O-])c1ccc(OCc2nc(=S)nc3oc(-c4ccccc4)nn23)cc1	71.2%	40.7%	41.5%	56.2%	53.3%	73.4%
O=[N+]([O-])c1ccccc1OCc1nc(=S)nc2oc(-c3ccccc3)nn12	70.2%	40.3%	40.2%	55.4%	52.2%	74.4%
COc1ccc(-c2nn3c(COc4ccc(C)cc4)nc(=S)nc3o2)cc1	62.3%	32.6%	30.9%	40.5%	42.7%	60.8%
Cc1ccc(OCc2nc(=S)nc3oc(-c4ccccc4)nn23)cc1	75.3%	40.9%	40.3%	52.5%	56.7%	72.6%
COc1ccc(-c2nn3c(COc4cccc(C)c4)nc(=S)nc3o2)cc1	62.5%	32%	30.4%	40.2%	42.3%	60.3%
Cc1cccc(OCc2nc(=S)nc3oc(-c4ccccc4)nn23)c1	76.2%	41.5%	36.7%	53.2%	57.3%	72.5%
COc1ccc(-c2nnc(NC(=S)NC(=O)COc3cc(C)ccc3C(C)C)o2)cc1	72.4%	46.3%	40.2%	50.9%	61.6%	70.8%
Cc1ccc(C(C)C)c(OCC(=O)NC(=S)Nc2nnc(-c3ccccc3)o2)c1	69.3%	33.7%	31.8%	45.3%	48.2%	66.6%
COc1ccc(-c2nnc(NC(=S)NC(=O)COc3ccc([N+](=O)[O-])cc3)o2)cc1	78.7%	50.2%	47.4%	61.6%	64.1%	75.2%
O=C(COc1ccc([N+](=O)[O-])cc1)NC(=S)Nc1nnc(-c2ccccc2)o1	85.2%	54.3%	50.8%	64.7%	67.9%	81.2%
O=C(COc1ccccc1[N+](=O)[O-])NC(=S)Nc1nnc(-c2ccccc2)o1	85.6%	54.8%	51.6%	65.4%	68.4%	80.2%
COc1ccc(-c2nnc(NC(=S)NC(=O)COc3ccc(C)cc3)o2)cc1	76.3%	39.2%	38.5%	55.6%	56.9%	75.3%
Cc1ccc(OCC(=O)NC(=S)Nc2nnc(-c3ccccc3)o2)cc1	72.2%	35.8%	37.2%	50.8%	52.6%	70.1%
COc1ccc(-c2nnc(NC(=S)NC(=O)COc3cccc(C)c3)o2)cc1	77.2%	39.4%	40.5%	56.4%	55.3%	75.6%
Cc1cccc(OCC(=O)NC(=S)Nc2nnc(-c3ccccc3)o2)c1	71.3%	34.7%	36.6%	50.4%	50.2%	69.8%
